In US20240335443A1, “IMIDAZOLOPYRIDAZINE OR PYRAZOLOPYRIMIDINE COMPOUNDS AND COMPOSITIONS” (Anrui Biomedical Technology (Guangzhou) Co., Ltd., priority 2021, published 2024):
Where two headings read alike, the source gives them in different places.

Columns and labels:
[1] = target: T1, N-terminal His-tagged TYK2 pseudokinase domain (Homo sapiens, UniProt P29597); assay: TYK2 JH2 domain SPA binding assay; conditions: displacement of H3 probe (20 nM), 30 min room temperature; class symbols
T1 construct: the N-terminal His-tagged TYK2 pseudokinase domain; His (N); purchased Pharmaron
Protocol: TYK2 JH2 Domain Binding Assay
After incubating at room temperature for 30 min, the inhibition was calculated by the displacement of [3H] 3 binding as determined by scintillation counting. Dose-response curves were generated to determine the concentration required to inhibit H3 probe binding by […] (IC50).

[2] = test system: IL-23 induced STAT3 in HEK-Blue™ IL-23 cells; assay: IL-23 induced STAT3 QUANTI-Blue reporter assay in HEK-Blue IL-23 cells; assay type: cell-based; conditions: IL-23 0.1 ng/mL, SEAP levels, class symbols, read-out: IL23 reporter assay (IC50 nM)
Protocol: Biological Example 2. IL-23 Induced STAT3 QUANTI-Blue in HEK-Blue™ IL-23 Cells
HEK-Blue™ IL-23 cells were prepared at 2×10^5 cells/ml for adding 5000 cell/well and incubate plates containing compounds+cells for 1 hour at 37° C. Prepare IL-23 (treatment at final conc. 0.1 ng/mL) during incubation and add 2 ul per well of prepared cytokine in media to appropriate wells. The plate is incubated for overnight at 37° C. The next day, QUANTI-Blue solution is prepared. 18 ul of QUANTI-Blue solution per well is added into a new 384-well clear flat bottom plate, then add 2 ul of induced and treated HEK-Blue cell supernatant from overnight plate. Incubate the plate at 37° C. for 2 hours and determine SEAP levels.

[3] = HEK-Blue IL-23, HEK-Blue IL-23 cells

T1 sequence (P29597 589-875 limits assumed): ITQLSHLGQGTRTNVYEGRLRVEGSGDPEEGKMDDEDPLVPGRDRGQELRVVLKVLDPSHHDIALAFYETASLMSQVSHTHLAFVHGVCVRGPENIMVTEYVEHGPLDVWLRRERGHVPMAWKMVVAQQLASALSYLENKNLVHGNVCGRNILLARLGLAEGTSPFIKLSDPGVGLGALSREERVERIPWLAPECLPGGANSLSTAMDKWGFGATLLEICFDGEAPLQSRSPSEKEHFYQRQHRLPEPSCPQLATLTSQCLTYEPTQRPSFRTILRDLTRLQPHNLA

With `CNc1cc(Nc2cccn(-c3ccccn3)c2=O)nn2c(C(=O)NC(C)c3ncco3)cnc12` (racemic) [Compound 34] the IC50 [1] was 10 to 100 nM and the IC50 [2, 3] was 10 to 100 nM.

`[2H]C([2H])([2H])Nc1cc(Nc2cccn(-c3ccccn3)c2=O)nc2c(C(=O)NC(C)c3ncco3)cnn12` (racemic) [Compound 35] was tested, and the IC50 [1] was 10 to 100 nM and the IC50 [2, 3] was 10 to 100 nM.

In the case of `CNc1cc(Nc2cccn(-c3ccccn3)c2=O)nc2c(C(=O)NC3CCc4conc43)cnn12` (racemic) [Compound 37], the IC50 [1] was 10 to 100 nM and the IC50 [2, 3] was < 10 nM.

With `[2H]c1onc2c1CCC2NC(=O)c1cnn2c(NC)cc(Nc3cccn(-c4ccccn4)c3=O)nc12` (racemic) [Compound 38] the IC50 [1] was 10 to 100 nM and the IC50 [2, 3] was < 10 nM.

Molecule `CNc1cc(Nc2cccn(-c3ccccn3)c2=O)nc2c(C(=O)N[C@@H]3C[C@H]4CCO[C@H]43)cnn12` (racemic) [Compound 43] has an IC50 [1] of 10 to 100 nM and an IC50 [2, 3] of 10 to 100 nM.

For `CNc1cc(Nc2cccn(-c3ccccc3)c2=O)nn2c(C(=O)NC3CCn4ncnc43)cnc12` (racemic) [Compound 47], the IC50 [1] was 10 to 100 nM and the IC50 [2, 3] was < 10 nM.

For `CNc1cc(Nc2cccn(-c3ccn(C)n3)c2=O)nc2c(C(=O)N[C@@H]3C[C@H]4CCO[C@H]43)cnn12` (racemic) [Compound 51], the IC50 [1] was 100 to 1000 nM and the IC50 [2, 3] was 10 to 100 nM.

For `CNc1cc(Nc2cccn([C@H]3C[C@H](F)C3)c2=O)nn2c(C(=O)NC3CCn4ncnc43)cnc12` (mixture of isomers) [Compound 91], the IC50 [1] was 10 to 100 nM and the IC50 [2, 3] was 10 to 100 nM.

For `CNc1cc(Nc2cccc3c2OCCC3)nn2c(C(=O)NC(C)c3ncco3)cnc12` (single isomer, unassigned) [Compound 22a], the IC50 [1] was > 1000 nM and the IC50 ([2]; HEK-Blue IL-23 cells) was ≥ 1000 nM.

`CNc1cc(Nc2cccc3c2OCCC3)nn2c(C(=O)NC(C)c3ncco3)cnc12` (single isomer, unassigned) [Compound 22b] was tested, and the IC50 [1] was < 10 nM and the IC50 ([2]; HEK-Blue IL-23 cells) was < 10 nM.

In the case of `CNc1cc(Nc2cccc3c2OCCC3)nc2c(C(=O)NC(C)c3ncco3)cnn12` (single isomer, unassigned) [Compound 23a], the IC50 [1] was 100 to 1000 nM and the IC50 ([2]; HEK-Blue IL-23 cells) was ≥ 1000 nM.

`CNc1cc(Nc2cccc3c2OCCC3)nc2c(C(=O)NC(C)c3ncco3)cnn12` (single isomer, unassigned) [Compound 23b] was tested, and the IC50 [1] was < 10 nM and the IC50 ([2]; HEK-Blue IL-23 cells) was 10 to 100 nM.

For `CNc1cc(Nc2cccn(-c3ccccn3)c2=O)nc2c(C(=O)NC(C)c3ncco3)cnn12` (single isomer, unassigned) [Compound 36b], the IC50 [1] was 10 to 100 nM and the IC50 ([2]; HEK-Blue IL-23 cells) was 10 to 100 nM.

In the case of `CNc1cc(Nc2cccn(-c3ccn(C)n3)c2=O)nn2c(C(=O)NC(C)c3ncco3)cnc12` (single isomer, unassigned) [Compound 49a], the IC50 [1] was 10 to 100 nM and the IC50 ([2]; HEK-Blue IL-23 cells) was < 10 nM.

`CNc1cc(Nc2cccn(-c3ccn(C)n3)c2=O)nn2c(C(=O)NC(C)c3ncco3)cnc12` (single isomer, unassigned) [Compound 49b] was tested, and the IC50 [1] was > 1000 nM and the IC50 ([2]; HEK-Blue IL-23 cells) was ≥ 1000 nM.

Work on `CNc1cc(Nc2cccn(CC3CCCO3)c2=O)nn2c(C(=O)N[C@@H]3C[C@H]4CCO[C@H]43)cnc12` (single isomer, unassigned) [Compound 62a] yielded an IC50 [1] of 100 to 1000 nM and an IC50 [2, 3] of 10 to 100 nM.

Molecule `CNc1cc(Nc2cccn(CC3CCCO3)c2=O)nn2c(C(=O)N[C@@H]3C[C@H]4CCO[C@H]43)cnc12` (single isomer, unassigned) [Compound 62b] has an IC50 [1] of 10 to 100 nM and an IC50 ([2]; HEK-Blue IL-23 cells) of 10 to 100 nM.

`[2H]C([2H])([2H])Nc1cc(Nc2cccn(C3CCCC4(COC4)C3)c2=O)nn2c(C(=O)N[C@@H]3C[C@H]4CCO[C@H]43)cnc12` (single isomer, unassigned) [Compound 68a] was tested, and the IC50 [1] was 10 to 100 nM and the IC50 [2, 3] was 10 to 100 nM.

`[2H]C([2H])([2H])Nc1cc(Nc2cccn(C3CCCC4(COC4)C3)c2=O)nn2c(C(=O)N[C@@H]3C[C@H]4CCO[C@H]43)cnc12` (single isomer, unassigned) [Compound 68b] was tested, and the IC50 [1] was 10 to 100 nM and the IC50 ([2]; HEK-Blue IL-23 cells) was < 10 nM.

With `[2H]C([2H])([2H])Nc1cc(Nc2cccn(C3CCCC4(COC4)C3)c2=O)nn2c(C(=O)N[C@@H]3C[C@@H]3F)cnc12` (single isomer, unassigned) [Compound 75a] the IC50 [1] was 100 to 1000 nM and the IC50 ([2]; HEK-Blue IL-23 cells) was 100 to 1000 nM.

In the case of `[2H]C([2H])([2H])Nc1cc(Nc2cccn(C3CCCC4(COC4)C3)c2=O)nn2c(C(=O)N[C@@H]3C[C@@H]3F)cnc12` (single isomer, unassigned) [Compound 75b], the IC50 [1] was 10 to 100 nM and the IC50 ([2]; HEK-Blue IL-23 cells) was 10 to 100 nM.

In the case of `CNc1cc(Nc2cccn(C3C[C@H]4CC[C@@H](C3)O4)c2=O)nn2c(C(=O)N[C@@H]3C[C@@H]3F)cnc12` (single isomer, unassigned) [Compound 79a], the IC50 [1] was 10 to 100 nM and the IC50 [2, 3] was 10 to 100 nM.

In the case of `CNc1cc(Nc2cccn(C3C[C@H]4CC[C@@H](C3)O4)c2=O)nn2c(C(=O)N[C@@H]3C[C@@H]3F)cnc12` (single isomer, unassigned) [Compound 79b], the IC50 [1] was 10 to 100 nM and the IC50 ([2]; HEK-Blue IL-23 cells) was < 10 nM.

In the case of `CNc1cc(Nc2cccn([C@H]3C[C@H](OC)C3)c2=O)nn2c(C(=O)NC3CCC4CCOC43)cnc12` (single isomer, unassigned) [Compound 88a], the IC50 [1] was 10 to 100 nM and the IC50 ([2]; HEK-Blue IL-23 cells) was < 10 nM.

`CNc1cc(Nc2cccn([C@H]3C[C@H](OC)C3)c2=O)nn2c(C(=O)NC3CCC4CCOC43)cnc12` (single isomer, unassigned) [Compound 88b] was tested, and the IC50 [1] was 100 to 1000 nM and the IC50 ([2]; HEK-Blue IL-23 cells) was 100 to 1000 nM.

Molecule `CNc1cc(Nc2cccn(C3CC(C)(OC)C3)c2=O)nn2c(C(=O)N[C@@H]3C[C@H]4CCO[C@H]43)cnc12` (single isomer, unassigned) [Compound 92a] has an IC50 [1] of 10 to 100 nM and an IC50 [2, 3] of 10 to 100 nM.

`[2H]C([2H])([2H])OC1(C)CC(n2cccc(Nc3cc(NC)c4ncc(C(=O)N[C@@H]5C[C@H]6CCO[C@H]65)n4n3)c2=O)C1` (single isomer, unassigned) [Compound 93a] showed an IC50 [1] of 10 to 100 nM and an IC50 [2, 3] of 10 to 100 nM.

`[2H]C([2H])([2H])OC1(C)CC(n2cccc(Nc3cc(NC)c4ncc(C(=O)N[C@@H]5C[C@H]6CCO[C@H]65)n4n3)c2=O)C1` (single isomer, unassigned) [Compound 93b] was tested, and the IC50 [1] was 10 to 100 nM and the IC50 ([2]; HEK-Blue IL-23 cells) was 10 to 100 nM.

Work on `[2H]C([2H])([2H])Nc1cc(Nc2cccn(C3CC4OCCC43)c2=O)nn2c(C(=O)N[C@@H]3C[C@H]4CCO[C@H]43)cnc12` (single isomer, unassigned) [Compound 94a] yielded an IC50 [1] of 10 to 100 nM and an IC50 [2, 3] of 10 to 100 nM.

Work on `[2H]C([2H])([2H])Nc1cc(Nc2cccn(C3CC4OCCC43)c2=O)nn2c(C(=O)N[C@@H]3C[C@H]4CCO[C@H]43)cnc12` (single isomer, unassigned) [Compound 94b] yielded an IC50 [1] of 10 to 100 nM and an IC50 ([2]; HEK-Blue IL-23 cells) of 10 to 100 nM.

For `CNc1cc(Nc2cccn([C@@H]3C[C@H]4CCO[C@H]43)c2=O)nn2c(C(=O)NC3CCC4CCOC43)cnc12` (single isomer, unassigned) [Compound 95a], the IC50 [1] was 10 to 100 nM and the IC50 ([2]; HEK-Blue IL-23 cells) was < 10 nM.

With `CNc1cc(Nc2cccn([C@@H]3C[C@H]4CCO[C@H]43)c2=O)nn2c(C(=O)NC3CCC4CCOC43)cnc12` (single isomer, unassigned) [Compound 95b] the IC50 [1] was > 1000 nM and the IC50 ([2]; HEK-Blue IL-23 cells) was ≥ 1000 nM.

`[2H]C([2H])([2H])Nc1cc(Nc2cccn(C3CC4(CCOC4)C3)c2=O)nn2c(C(=O)N[C@@H]3C[C@H]4CCO[C@H]43)cnc12` (single isomer, unassigned) [Compound 96a] was tested, and the IC50 [1] was 10 to 100 nM and the IC50 [2, 3] was 10 to 100 nM.

For `[2H]C([2H])([2H])Nc1cc(Nc2cccn(C3CC4(CCOC4)C3)c2=O)nn2c(C(=O)N[C@@H]3C[C@H]4CCO[C@H]43)cnc12` (single isomer, unassigned) [Compound 96b], the IC50 [1] was 10 to 100 nM and the IC50 ([2]; HEK-Blue IL-23 cells) was 10 to 100 nM.

With `[2H]C([2H])([2H])Nc1cc(Nc2cccn(C3CC4(CCOC4)C3)c2=O)nc2c(C(=O)N[C@@H]3C[C@H]4CCO[C@H]43)cnn12` (single isomer, unassigned) [Compound 97a] the IC50 [1] was 10 to 100 nM and the IC50 [2, 3] was 10 to 100 nM.

Molecule `[2H]C([2H])([2H])Nc1cc(Nc2cccn(C3CC4(CCOC4)C3)c2=O)nc2c(C(=O)N[C@@H]3C[C@H]4CCO[C@H]43)cnn12` (single isomer, unassigned) [Compound 97b] has an IC50 [1] of 10 to 100 nM and an IC50 ([2]; HEK-Blue IL-23 cells) of 10 to 100 nM.

Work on `[2H]C([2H])([2H])Nc1cc(Nc2cccn(C3CC4(CCCO4)C3)c2=O)nn2c(C(=O)N[C@@H]3C[C@H]4CCO[C@H]43)cnc12` (single isomer, unassigned) [Compound 98a] yielded an IC50 [1] of 10 to 100 nM and an IC50 [2, 3] of 10 to 100 nM.

`[2H]C([2H])([2H])Nc1cc(Nc2cccn(C3CC4(CCCO4)C3)c2=O)nn2c(C(=O)N[C@@H]3C[C@H]4CCO[C@H]43)cnc12` (single isomer, unassigned) [Compound 98b] showed an IC50 [1] of 10 to 100 nM and an IC50 ([2]; HEK-Blue IL-23 cells) of 10 to 100 nM.

Molecule `[2H]C([2H])([2H])Nc1cc(Nc2cccn(C3CC4OCCC43)c2=O)nn2c(C(=O)N[C@@H]3C[C@@H]3F)cnc12` (single isomer, unassigned) [Compound 101a] has an IC50 [1] of 10 to 100 nM and an IC50 [2, 3] of 10 to 100 nM.

With `[2H]C([2H])([2H])Nc1cc(Nc2cccn(C3CC4OCCC43)c2=O)nn2c(C(=O)N[C@@H]3C[C@@H]3F)cnc12` (single isomer, unassigned) [Compound 101b] the IC50 [1] was 10 to 100 nM and the IC50 ([2]; HEK-Blue IL-23 cells) was 10 to 100 nM.

`[2H]C([2H])([2H])Nc1cc(Nc2cccn(C3CC4(CCOC4)C3)c2=O)nn2c(C(=O)N[C@@H]3C[C@@H]3F)cnc12` (single isomer, unassigned) [Compound 102a] was tested, and the IC50 [1] was 10 to 100 nM and the IC50 [2, 3] was 10 to 100 nM.
